Measurements reported in US20220281930A1, “COMPOSITIONS AND METHODS FOR THE TREATMENT OF PATHOLOGICAL PAIN AND ITCH” (DUKE UNIVERSITY, priority 2019, published 2022).

Tested on: ß-cat
Assay: ß-cat nuclear translocation in primary neurons, immunolabeling
Format: cell-based, rat
Details: KP treatment
Description: Immunocytochemistry labeling of cultured neuronal cells was carried out as previously described (Liedtke et al., 2013, Small 9, 1066-1075; Yeo et al., 2009, J Neurosci 29:14652-14662; Yeo et al., 2013, Proc Natl Acad Sci USA 110:4315-4320). Primary antibodies are shown in the antibody table. Anti-KCC2 primary antibodies were validated with developing rat primary cortical neurons; we observed an increase in staining pattern that tightly matched increase of KCC2 mRNA expression (Liedtke et al., 2013, Small 9:1066-1075; Yeo et al., 2009, J Neurosci 29:14652-14662.; Yeo et al., 2013, Proc Natl Acad Sci USA 110:4315-4320). Secondary antibodies used were goat anti-mouse IgG Alexa Fluor 594 (Invitrogen A11032) and goat anti-rabbit IgG Alexa Fluor 594 (Invitrogen A11012). DAPI stain was obtained from Sigma Aldrich (D9542). Stained cells were observed using an inverted confocal microscope (Zeiss LSM780).
We obtained stacks of images recorded at 0.35 μm intervals through separate channels with a 63× oil-immersion lens (NA, 1.40, refraction index, 1.45). Zen software (Zeiss) was used to construct composite images from each optical series by combining the images recorded through the different channels, and the same software was used to obtain Z projection images (image resolution: 1024×1024 pixels; pixel size: 0.11 μm). ImageJ was used for morphometry. […]

O=C1Cc2c([nH]c3ccc(Br)cc23)-c2ccccc2N1 [kenpaullone, 9-bromo-7,12-dihydro-indolo [3,2-d] [1]benzazepin-6(5H)-one]
catenin translocation into the nucleus (FIG. 9): significantly increases
